The values below come from paper PMC6891695, “Evaluation of Antifouling Potential and Ecotoxicity of Secondary Metabolites Derived from Red Algae of the Genus Laurencia” (Marine Drugs, 2019).

One data set deals with A. amphitrite cyprids. As to the kind of experiment: Substrate exploration analysis: SIPC deposition by cyprids (anti-SIPC Western blot on wells). In kind it is in vivo, Amphibalanus amphitrite. The following applies: for effect on deposition of SIPC protein on the surface of the bioassay plates: concentrations at the EC50 values, p > 0.05; for effect on deposition of SIPC protein on the surface of the bioassay plates / effect on adjusted integrated density of anti-SIPC immunoreactive signals: 24 h; for effect on adjusted integrated density of anti-SIPC immunoreactive signals: indicated concentrations, unpaired two-tailed t-test with Welch's correction. The procedure: To test the substrate exploratory behaviour of A. amphitrite cyprids in the presence of selected metabolites, settlement bioassays were conducted by adding 10 cyprids into individual wells of a 24-well polystyrene sterile microplate (Orange Scientific, Braine l’Alleud, Belgium) containing 2 mL of ASW (25‰). These experiments were repeated twice with four replicates per experiment. Plates were covered and sealed with Parafilm® to avoid evaporation and incubated at 25 °C away from any light source for 24 h. Then, the 2 mL of ASW was aspirated from each well and all settled and non-settled cyprids were counted and removed. Wells were then blocked by incubation with 5% BSA in TBST (25 mM Tris-HCl, pH 7.5, 150 mM NaCl, 0.1% Tween 20) for 1 h at room temperature. Wells were then incubated for 1 h at room temperature with the mouse anti-SIPC monoclonal antibody at 1:100 dilution of the cloned cell line culture supernatant in TBST with 5% BSA, washed with TBST (3 × 5 min) and incubated with an HRP-conjugated anti-mouse antibody (1:1000, Cell Signaling Technology, Danvers, MA, USA) for 1 h at room temperature. Wells were then washed with TBST (3 × 5 min) and immunostaining was detected using the 20 × LumiGLO® chemiluminescence kit (Cell Signaling Technology, Danvers, MA, USA) in a Bio-Rad ChemiDoc XRS + Gel Photo Documentation System. To measure the relative intensity of immunoreactive spots on this format of Western blots, images were analyzed with ImageJ 1.52k (NIH, Bethesda, MD, USA), and the adjusted integrated density of the signals was calculated using the formula: Adjusted integrated density (IntDen) = IntDen of experimental region of interest (ROI)—(mean of background ROI × area of experimental ROI). Data were exported and statistically analyzed with GraphPad Prism v.6 using unpaired, two-tailed t-tests at p = 0.05, with Welch’s correction.
In general terms: A western blot detects proteins with antibodies after separation by electrophoresis.

The next data set relates to A. salina nauplii. As to the kind of experiment: Artemia salina toxicity assay. The settings on record: 24 and 48 h. The class given is in vivo. The procedure:
The short-term toxicity assay with A. salina nauplii was used to determine the toxicity of secondary metabolites. Hatching of A. salina nauplii was carried out in ASW (35‰) using 0.5 g of cysts incubated in 500 mL seawater at a temperature of 25 ± 1 °C and lateral illumination (1000 Lux). All cysts were kept in continuous suspension with aeration and 24 h later hatched larvae (instar I) were harvested. Toxicity assays were carried out in three independent experiments in 24-well plates with four replicates of each tested concentration. Ten nauplii per well were transferred with a Pasteur pipette into the 24-well plates and each well was filled with 2 mL of ASW and 50 μL of various concentrations of the tested compounds in methanol. Control treatments received 50 μL of methanol. Plates were incubated in the dark at 25 ± 1 °C for 48 h. Mortality was assessed by recording the number of individuals with no movement of their appendages within 10 seconds and is expressed as the percentage of the total number of assessed individuals for each concentration.
For EC50 or IC50 (the concentration that results in 50% stimulation or inhibition relative to the control) calculations in GraphPad Prism v.6, all data were fitted to the curve according to the following models for normalized response: Y = 100/(1 + 10^((X − LogIC50))) or Y = 100/(1 + 10^((LogEC50 − X))) depending on the trend of the curve.

For the compound `CC(C)[C@@H]1CC=C[C@H]2[C@H]3[C@](C)(CC[C@]12CBr)[C@@H](Br)CC[C@@]3(C)O` [Bromosphaerol, reference compound], in the data set with A. amphitrite cyprids (10 μM), the “effect on deposition of SIPC by the cyprids relative to control (ASW)” value was “did not affect deposition of SIPC”. In the data set on A. amphitrite cyprids, the “effect on deposition of SIPC protein on the surface of the bioassay plates” value is given as “no statistically significant effect” and the “effect on adjusted integrated density of anti-SIPC immunoreactive signals” value was “none of the two tested compounds (p > 0.05) affected”. For the same compound, in the data set on A. salina nauplii, the “toxicity against A. salina nauplii (in words)” value was “did not show any toxicity”.

Turning to `CC1=C2CC[C@@](C)(Cl)[C@@H](Br)C[C@]2(C)[C@@H](C)[C@@H](Br)[C@@H]1O` [Compound 9, perforenol], in the data set with A. amphitrite cyprids, the “effect on deposition of SIPC protein on the surface of the bioassay plates” value is “no statistically significant effect” and the “effect on adjusted integrated density of anti-SIPC immunoreactive signals” value is reported as “none of the two tested compounds (p > 0.05) affected”.
